How the values were obtained:
mouse [1] = conditions: Combined chronic toxicity/carcinogenicity, b6c3f1, Oral, Gavage/Intubation, dose end: 105 week, group: systemic
mouse [2] = conditions: Subchronic oral toxicity in rodents, b6c3f1, Gavage/Intubation, dose end: 14 week, group: systemic
rat [3] = conditions: Neurotoxicity screening battery; long evans; Injection; Intraperitoneal; dose end: 13 week; group: cannot be grouped; systemic / in life observation / clinical signs / abnormal gait + systemic / in life observation / clinical signs / irritability + systemic…
mouse [4] = conditions: Multigenerational reproductive toxicity study, cd1, Oral, Water, dose end: 2 generation
rat [5] = conditions: Developmental neurotoxicity study, fischer, Oral, Gavage/Intubation, dose end: 22 PND, group: cannot be grouped
rat [6] = conditions: Combined chronic toxicity/carcinogenicity, fischer, Oral, Water, dose end: 24 month, group: systemic
rat [7] = conditions: Prenatal developmental toxicity study; sprague dawley; Oral; Gavage/Intubation; dose end: 20 GD; group: maternal; systemic / in life observation / body weight / body weight gain
mouse [8] = conditions: Prenatal developmental toxicity study, cd1, Oral, Gavage/Intubation, dose end: 17 GD
rat [9] = conditions: Developmental neurotoxicity study; wistar; Oral; Gavage/Intubation; dose end: 91 PND; group: cannot be grouped; systemic / in life observation / body weight / body weight + systemic / in life observation / body weight / body weight gain + systemic / in…
rat [10] = conditions: Subchronic oral toxicity in rodents, fischer, Water, dose end: 93 day
rat [11] = conditions: Developmental neurotoxicity study; sprague dawley; Oral; Gavage/Intubation; dose end: 77 PND; group: cannot be grouped; systemic / in life observation / body weight / body weight
rat [12] = conditions: Prenatal developmental toxicity study; sprague dawley; Oral; Gavage/Intubation; dose end: 17 GD; group: maternal; systemic / in life observation / body weight / body weight + systemic / in life observation / body weight / body weight gain + systemic / in…
rat [13] = conditions: Fertility (Segment I), sprague dawley, Oral, Gavage/Intubation, dose end: 7 GD
rabbit [14] = conditions: Prenatal developmental toxicity study, new zealand white, Oral, Gavage/Intubation, dose end: 19 GD
rat [15] = conditions: Prenatal developmental toxicity study, sprague dawley, Oral, Gavage/Intubation, dose end: 17 GD
dog = conditions: Sub-acute repeat dose toxicity, beagle, Oral, Capsule, dose end: 1 month, group: systemic
rat [16] = conditions: Prenatal developmental toxicity study, sprague dawley, Oral, Gavage/Intubation, dose end: 17 GD; remark: listed apart in the source
rabbit [17] = conditions: Prenatal developmental toxicity study; new zealand white; Oral; Gavage/Intubation; dose end: 19 GD; group: maternal; systemic / in life observation / body weight / body weight gain + systemic / in life observation / food consumption / food consumption
rat [18] = conditions: Fertility (Segment I), sprague dawley, Oral, Gavage/Intubation, dose end: 7 GD; remark: listed apart in the source
rat [19] = conditions: Sub-acute repeat dose toxicity, sprague dawley, Oral, Gavage/Intubation, dose end: 4 week, group: systemic
[20] = systemic / pathology microscopic / ovary / atrophy + systemic / pathology microscopic / ovary / cyst + systemic / pathology microscopic / …
[21] = systemic / pathology microscopic / ovary / cyst + systemic / pathology microscopic / harderian gland / adenoma
[22] = systemic / hematology / erythrocyte (rbc) count differential / erythrocyte (rbc) + systemic / hematology / hematocrit (hct) / hematocrit (…
[23] = systemic / hematology / hemoglobin (hgb) / hemoglobin (hgb)
[24] = group: parental, systemic / in life observation / body weight / body weight + systemic / organ weight / adrenal gland / absolute + systemic / organ weight / …
[25] = group: reproductive, reproductive / offspring survival early / live fetuses / live fetuses
[26] = systemic / in life observation / body weight / offspring (pup) weight + reproductive / reproductive performance / pregnancy index / …
[27] = systemic / pathology microscopic / testes / mesothelioma nos + systemic / pathology microscopic / brain / astrocytoma nos + systemic / …
[28] = group: developmental, systemic / in life observation / body weight / fetal weight
[29] = group: maternal, systemic / in life observation / body weight / body weight gain + systemic / in life observation / clinical signs / splayed hindlimbs + …
[30] = group: cholinesterase, cholinesterase / cholinesterase / cholinesterase / cholinesterase (che)
[31] = group: systemic, systemic / clinical chemistry / alkaline phosphatase (alp/alk) / alkaline phosphatase (alp/alk) + systemic / hematology / erythrocyte (rbc) …
[32] = group: maternal, reproductive / reproductive performance / estrous cycle / abnormal
[33] = group: maternal, reproductive / reproductive performance / estrous cycle / abnormal + reproductive / reproductive performance / estrous cycle / corpora lutea…
[34] = group: parental, systemic / in life observation / body weight / body weight gain
[35] = group: parental, systemic / in life observation / body weight / body weight gain + systemic / in life observation / food consumption / food consumption
[36] = group: developmental, developmental / developmental malformation / bone / incomplete ossification + developmental / developmental malformation / bone / unossified…
[37] = group: maternal, systemic / in life observation / body weight / body weight gain + systemic / in life observation / food consumption / food consumption
[38] = group: maternal, systemic / in life observation / body weight / body weight gain + systemic / in life observation / food consumption / food consumption + …
[39] = group: developmental, developmental / developmental malformation / bone / unossified + systemic / in life observation / body weight / fetal weight
[40] = group: maternal, systemic / in life observation / body weight / body weight + systemic / in life observation / body weight / body weight gain + systemic / in…
[41] = systemic / in life observation / clinical signs / defecation (diarrhea)
[42] = systemic / in life observation / clinical signs / defecation (diarrhea) + systemic / clinical chemistry / alanine aminotransferase (alt/sgpt…
[43] = group: developmental, developmental / developmental malformation / trunk / absent genital tubercle + developmental / developmental malformation / trunk / anal …
[44] = group: parental, systemic / in life observation / body weight / body weight + systemic / in life observation / body weight / body weight gain
[45] = group: parental, systemic / in life observation / body weight / body weight + systemic / in life observation / body weight / body weight gain + systemic / in…
[46] = systemic / clinical chemistry / alanine aminotransferase (alt/sgpt) / alanine aminotransferase (alt/sgpt) + systemic / in life observation…
[47] = systemic / organ weight / salivary glands / absolute + systemic / pathology microscopic / vagina / diestrus

SMILES: C=CC#N [Acrylonitrile]
- LOAEL (mouse [1]; [20]): 10 mg/kg/day
- NOAEL (mouse [1]; [20]): 2.5 mg/kg/day
- LEL (mouse [1]; [21]): 2.5 mg/kg/day
- NEL (mouse [1]; [21]): < 2.5 mg/kg/day
- LOAEL (mouse [2]; [22]): > 60 mg/kg/day
- NOAEL (mouse [2]; [22]): ≥ 60 mg/kg/day
- LEL (mouse [2]; [23]): 5 mg/kg/day
- NEL (mouse [2]; [23]): < 5 mg/kg/day

SMILES: C=CC(N)=O [Acrylamide]
- LEL (rat [3]): 1 mg/kg/day
- LOAEL (rat [3]): > 12 mg/kg/day
- NEL (rat [3]): < 1 mg/kg/day
- NOAEL (rat [3]): ≥ 12 mg/kg/day
- LOAEL (mouse [4]; [24]): > 7.7 mg/kg/day
- NEL (mouse [4]; [24]): 0.86 mg/kg/day
- NOAEL (mouse [4]; [24]): ≥ 7.7 mg/kg/day
- LEL (mouse [4]; group: parental, systemic / organ weight / adrenal gland / absolute + systemic / organ weight / kidney / absolute + systemic / organ weight / liver / …): 2.9 mg/kg/day
- LEL (mouse [4]; [25]): 7.7 mg/kg/day
- LOAEL (mouse [4]; [25]): > 7.7 mg/kg/day
- NOAEL (mouse [4]; [25]): ≥ 7.7 mg/kg/day
- LEL (rat [5]; systemic / in life observation / body weight / offspring (pup) weight): 1 mg/kg/day
- NEL (rat [5]; systemic / in life observation / body weight / offspring (pup) weight + developmental / developmental landmark / pinna unfolding / pinna …): 0.5 mg/kg/day
- LOAEL (rat [5]; [26]): > 10 mg/kg/day
- NOAEL (rat [5]; [26]): ≥ 10 mg/kg/day
- LEL (rat [6]; systemic / pathology microscopic / testes / mesothelioma nos): 0.1 mg/kg/day
- LOAEL (rat [6]; [27]): > 2 mg/kg/day
- NEL (rat [6]; [27]): 0.01 mg/kg/day
- NOAEL (rat [6]; [27]): ≥ 2 mg/kg/day
- LEL (rat [7]): 7.5 mg/kg/day
- LOAEL (rat [7]): 7.5 mg/kg/day
- NEL (rat [7]): 2.5 mg/kg/day
- NOAEL (rat [7]): 2.5 mg/kg/day
- LEL (mouse [8]; [28]): 45 mg/kg/day
- LOAEL (mouse [8]; [28]): > 45 mg/kg/day
- NEL (mouse [8]; [28]): 15 mg/kg/day
- NOAEL (mouse [8]; [28]): ≥ 45 mg/kg/day
- LOAEL (mouse [8]; [29]): > 45 mg/kg/day
- NEL (mouse [8]; [29]): 3 mg/kg/day
- NOAEL (mouse [8]; [29]): ≥ 45 mg/kg/day
- LEL (mouse [8]; group: maternal, systemic / organ weight / uterus / nos): 15 mg/kg/day
- LEL (rat [9]): 25 mg/kg/day
- LOAEL (rat [9]): > 25 mg/kg/day
- NEL (rat [9]): < 25 mg/kg/day
- NOAEL (rat [9]): ≥ 25 mg/kg/day
- LEL (rat [10]; [30]): 20 mg/kg/day
- LOAEL (rat [10]; [30]): > 20 mg/kg/day
- NEL (rat [10]; [30]): 5 mg/kg/day
- NOAEL (rat [10]; [30]): ≥ 20 mg/kg/day
- LOAEL (rat [10]; [31]): > 20 mg/kg/day
- NOAEL (rat [10]; [31]): ≥ 20 mg/kg/day
- NEL (rat [10]; group: systemic, systemic / hematology / erythrocyte (rbc) count differential / erythrocyte (rbc) + systemic / hematology / hematocrit (hct) / hematocrit (…): 0.2 mg/kg/day
- LEL (rat [10]; group: systemic, systemic / pathology microscopic / nerve / [other]): 1 mg/kg/day
- LEL (rat [11]): 5 mg/kg/day
- LOAEL (rat [11]): 5 mg/kg/day
- NEL (rat [11]): < 5 mg/kg/day
- NOAEL (rat [11]): < 5 mg/kg/day

SMILES: CN(C)C(=O)NC1(c2ccccc2)CCN(CC[C@@]2(c3ccc(F)c(F)c3)CN(C(=O)c3ccccc3)CCO2)CC1.Cl
- LEL (rat [12]): 250 mg/kg/day
- LOAEL (rat [12]): > 250 mg/kg/day
- NEL (rat [12]): < 250 mg/kg/day
- NOAEL (rat [12]): ≥ 250 mg/kg/day
- LEL (rat [13]; [32]): 20 mg/kg/day
- LOAEL (rat [13]; [32]): 100 mg/kg/day
- NEL (rat [13]; [32]): < 20 mg/kg/day
- NOAEL (rat [13]; [33]): 20 mg/kg/day
- LEL (rat [13]; [34]): 20 mg/kg/day
- NEL (rat [13]; [34]): < 20 mg/kg/day
- LOAEL (rat [13]; [35]): 100 mg/kg/day
- NOAEL (rat [13]; [35]): 20 mg/kg/day
- LEL (rabbit [14]; [36]): 200 mg/kg/day
- LOAEL (rabbit [14]; [36]): 200 mg/kg/day
- NEL (rabbit [14]; [36]): 60 mg/kg/day
- NOAEL (rabbit [14]; [36]): 60 mg/kg/day
- LEL (rabbit [14]; [37]): 60 mg/kg/day
- LOAEL (rabbit [14]; [37]): 60 mg/kg/day
- NEL (rabbit [14]; [38]): 20 mg/kg/day
- NOAEL (rabbit [14]; [38]): 20 mg/kg/day
- LEL (rat [15]; [39]): 250 mg/kg/day
- LOAEL (rat [15]; [39]): 250 mg/kg/day
- NEL (rat [15]; [39]): 70 mg/kg/day
- NOAEL (rat [15]; [39]): 70 mg/kg/day
- LEL (rat [15]; [40]): 250 mg/kg/day
- LOAEL (rat [15]; [40]): 250 mg/kg/day
- NEL (rat [15]; [40]): 70 mg/kg/day
- NOAEL (rat [15]; [40]): 70 mg/kg/day
- LEL (dog; [41]): 20 mg/kg/day
- NEL (dog; [41]): < 20 mg/kg/day
- LOAEL (dog; [42]): > 180 mg/kg/day
- NOAEL (dog; [42]): ≥ 180 mg/kg/day
- LEL (rat [16]; [43]): 500 mg/kg/day
- LOAEL (rat [16]; [43]): 500 mg/kg/day
- NEL (rat [16]; [43]): 100 mg/kg/day
- NOAEL (rat [16]; [43]): 100 mg/kg/day
- LOAEL (rat [16]; [40]): 500 mg/kg/day
- NEL (rat [16]; [40]): 20 mg/kg/day
- NOAEL (rat [16]; [40]): 100 mg/kg/day
- LEL (rat [16]; group: maternal, systemic / in life observation / clinical signs / piloerection + systemic / pathology gross / kidney / reduced size): 100 mg/kg/day
- LEL (rabbit [17]): 100 mg/kg/day
- LOAEL (rabbit [17]): > 200 mg/kg/day
- NEL (rabbit [17]): 20 mg/kg/day
- NOAEL (rabbit [17]): ≥ 200 mg/kg/day
- LEL (rat [18]; [33]): 250 mg/kg/day
- LOAEL (rat [18]; [33]): > 250 mg/kg/day
- NEL (rat [18]; [33]): 70 mg/kg/day
- NOAEL (rat [18]; [33]): ≥ 250 mg/kg/day
- LEL (rat [18]; [44]): 70 mg/kg/day
- LOAEL (rat [18]; [44]): 70 mg/kg/day
- NEL (rat [18]; [45]): 20 mg/kg/day
- NOAEL (rat [18]; [45]): 20 mg/kg/day
- LOAEL (rat [19]; [46]): 100 mg/kg/day
- NOAEL (rat [19]; [46]): 20 mg/kg/day
- LEL (rat [19]; [47]): 20 mg/kg/day
- NEL (rat [19]; [47]): < 20 mg/kg/day

From EPA's ToxRefDB 2
